The first test relates to amyloid β production in transfected H4 (human neuroglioma) cells stably expressing APP constructs. Nature of the test: In vitro cell-based assay of inhibitors of amyloid β production (ELISA). The note with it: Homo sapiens, 16 h, transfected H4 cells stably expressing APP constructs; approximately 16 hours incubation; amyloid β in medium by ELISA; read-out: ACTIVITY (IC50, inhibition of amyloid β production). As to the method:
In Vitro Cell-Based Assay of Inhibitors of Amyloid β Production
Transfected H4 (human neuroglioma) cells stably expressing APP constructs are used to identify and assess inhibitors of Aβ production. In brief, cells lines are exposed to compounds, and the effect of each compound on amyloid β production is determined by measuring the amount of amyloid β produced using an enzyme linked immunosorbent assay (ELISA) that detects amyloid β (see, for example, Seubert et al., (1992) Nature, 359:325-327).
Transfected cells that stably express wild-type and variant forms of APP are plated in 96-well format plates at a density sufficient for the rapid detection of the secreted amyloid β (experimentally predetermined for a particular stable cell population). Cells are plated at least six hours prior to the introduction of the test compound at which time the growth medium is replaced by fresh medium containing the compound to be tested. All synthetic agents are initially screened at doses ranging from 10-100 μM. Higher dilutions of agents can be used to minimize cytotoxicity. Incubation of cells with a test compound continues for approximately 16 hours at which time aliquots of medium from each well are removed and assayed for amyloid β.
ELISA is carried out by methods known in the art (see, e.g., Haass et al., Antibodies: A Laboratory Manual, Harlow and lane, Editors, Cold Spring Harbor Press, 1988) The capture antibody is typically a mouse monoclonal (IgG1/kβ-APPa) which recognizes the carboxyl terminal epitope of amyloid β. The specificity of the capture antibody insures measurement of amyloid β without interference from other secreted APP fragments that share amino acid sequence (amyloid β 1-16) homology with amyloid β but lack the carboxy-terminal region. The detecting antibody is typically an affinity-purified rabbit polyclonal antibody that is specific for the amino terminus of amyloid β.
Results from test compounds are compared to results obtained when cells are treated with control agents. Amyloid β levels are determined by comparison to a standard curve obtained by subjecting a range of known amounts of amyloid β to the ELISA.
A compound is identified as “active” when it inhibits cellular production of amyloid β relative to levels in control samples by at least 50% at the initial tested concentration without significant cytotoxicity. Active compounds are then assayed in dose-response experiments to determine the lowest dose of compound necessary for inhibition of amyloid β production.
Background: In an ELISA, binding on a coated surface is turned into a signal by an enzyme label.
With `C[C@H](CCCNC(=O)C(C)(C)C)N(c1cc(Cl)ccc1Cl)S(=O)(=O)c1ccc(Cl)cc1` (stereo in doubt) [Example 1137, 4-chloro-N-(2,5-dichlorophenyl)-N-[4-[[(1,1-dimethylethyl)carbonyl]amino]-1-methylbutyl]benzenesulfonamide], the IC50 lay within 100 to 500 nM.
With `CC([C@@H]1CCCN1C(=O)OC(C)(C)C)N(c1cc(Cl)ccc1Cl)S(=O)(=O)c1ccc(Cl)cc1` (stereo in doubt) [Example 1255, 4-chloro-N-(2,5-dichlorophenyl)-N-[1-(S)-[1-[(1,1-dimethylethoxy)carbonyl]pyrrolidin-2-yl]ethyl]benzenesulfonamide], the IC50 was greater than 500 nM.

Still in this test, the particulars now being: Table B; transfected H4 cells stably expressing APP; approximately 16 hours incubation; amyloid β in medium by ELISA; read-out: ACTIVITY (inhibitory concentration IC50, inhibition of amyloid β production).
As to `CC(C)(C)[Si](C)(C)OCCCCCO` [Example 1, (S)-5-[[dimethyl(1,1-dimethylethyl)silyl]oxy]-1-pentanol], the IC50 was no more than 25 nM.
`O=[N+]([O-])c1cc(Cl)ccc1COC1CCCCO1` (stereo not shown) [Example 2, 4-Chloro-2-nitro-1-[[(tetrahydro-2H-pyran-2-yl)oxy]methyl]benzene]: the IC50 is no more than 25 nM.
In the case of `Nc1cc(Cl)ccc1COC1CCCCO1` (stereo not shown) [Example 3, 5-Chloro-2-[[(tetrahydro-2H-pyran-2-yl)oxy]methyl]benzenamine], the IC50 is no more than 25 nM.
In the case of `CC(=O)OCc1ccc(Cl)cc1N([C@H](C)CCCS(=O)(=O)O)S(=O)(=O)c1ccc(Cl)cc1` [Example 11], the IC50 was no more than 25 nM.
For the compound `C[C@H](CCCS(=O)(=O)Cl)N(c1cc(Cl)ccc1CO)S(=O)(=O)c1ccc(Cl)cc1` [Example 12], the IC50 was no more than 25 nM.
On the same count and under the same terms, to `C[C@H](CCCS(=O)(=O)Cl)N(c1cc(Cl)ccc1Cl)S(=O)(=O)c1ccc(Cl)cc1` [Example 18] belongs no more than 25 nM.
The same measure, in the same setting: the value for `C[C@H](O)CO[Si](C)(C)C(C)(C)C` [Example 21] was no more than 25 nM; that for `C[C@H](O)CCOC(c1ccccc1)(c1ccccc1)c1ccccc1` [Example 25, (S)-4-triphenylmethylyloxy-2-butanol] was no more than 25 nM.
On the same count and under the same terms, to `C[C@H](CCOC(c1ccccc1)(c1ccccc1)c1ccccc1)N(c1cc(Cl)ccc1Cl)S(=O)(=O)c1ccc(Cl)cc1` [Example 26, 4-Chloro-N-(2,5-dichlorophenyl]-N-[1(R)-methyl-(3-triphenylmethyloxy)-propyl]benezenesulfonamide] belongs no more than 25 nM.
Take `C[C@H](O)CCCC(=O)OC(C)(C)C` [Example 34, 1,1-Dimethylethyl (5S)-5-hydroxyhexanoate]: the IC50 was no more than 25 nM.
Take `C[C@H](CCCC(=O)OC(C)(C)C)N(c1cc(Cl)ccc1Cl)S(=O)(=O)c1ccc(Cl)cc1` [Example 35, 1,1-dimethylethyl(5R)-5-[(2,5-dichlorophenyl)-[(4-chlorophenyl)sulfonyl]-amino]hexanoate]: the IC50 is no more than 25 nM.
On the same count and under the same terms, the value for `C[C@H](CCCC(=O)O)N(c1cc(Cl)ccc1Cl)S(=O)(=O)c1ccc(Cl)cc1` [Example 36, (5R)-5-[(2,5-dichlorophenyl][(4-chlorophenyl)sulfonyl]-amino]hexanoic Acid] was no more than 25 nM; that for `C[C@H](CCCS(=O)(=O)Cl)N(c1cc(Cl)ccc1F)S(=O)(=O)c1ccc(Cl)cc1` [Example 43, (4R)-4-[N-[5-chloro-2-fluorophenyl][(4-chlorophenyl)sulfonyl]amino]pentylsulfonyl Chloride] was no more than 25 nM; that for `c1cn(CCCNCC2CC2)cn1` [Example 58, N-cyclopropylmethyl-3-(1H)-imidazolylpropylamine] was no more than 25 nM.
On the same count and under the same terms, the value for `CS(=O)(=O)C[C@H]1CCCN1` [Example 68] was no more than 25 nM; that for `C[C@H](CCNc1c(NCC[C@@H](C)N(c2cc(F)ccc2F)S(=O)(=O)c2ccc(Cl)cc2)c(=O)c1=O)N(c1cc(F)ccc1F)S(=O)(=O)c1ccc(Cl)cc1` [Example 132, 4-Chloro-N-(2,5-difluorophenyl)-N-[3-[2-[4-chloro-N-(2,5-difluorophenyl)-N-[(3-amino)-1(R)-methylpropyl]benzenesulfonamide]-3,4-dioxo-1-cyclobutenyl]amine-1(R)-methylpropyl]benzenesulfonamide] was no more than 25 nM; that for `COC(=O)C[S+]([O-])C[C@@H](C)N(c1cc(Cl)ccc1Cl)S(=O)(=O)c1ccc(Cl)cc1` (stereo partly drawn) [Example 178, Methyl(5R)-5-[(2,5-dichlorophenyl)[(4-chlorophenyl)sulfonyl]amino]-3-thiohexanoate,3 Oxide] was no more than 25 nM.
As for `COC(=O)CSCC[C@@H](C)N(c1cc(Cl)ccc1Cl)S(=O)(=O)c1ccc(Cl)cc1` [Example 179, Methyl(6R)-6-[(2,5,dichlorophenyl)[(4-chlorophenyl)sulfonyl]amino]-3-thioheptanoate], the IC50 was no more than 25 nM.
On the same count and under the same terms, the value for `C[C@H](CCSCC(=O)O)N(c1cc(Cl)ccc1Cl)S(=O)(=O)c1ccc(Cl)cc1` [Example 180, (6R)-6-[(2,5-dichlorophenyl)[(4-chlorophenyl)sulfonyl]amino]-3-thioheptanoic Acid] was no more than 25 nM; that for `C[C@H](CC[S+]([O-])CC(=O)O)N(c1cc(Cl)ccc1Cl)S(=O)(=O)c1ccc(Cl)cc1` (stereo partly shown) [Example 182] was 25 to 50 nM.

Staying with this test, now noted: transfected H4 cells stably expressing APP constructs; approximately 16 hours incubation; amyloid β in medium by ELISA; read-out: ACTIVITY (IC50, inhibition of amyloid β production).
In the case of “4-chloro-N-(2,5-difluorophenyl)-N-[3-[2-[4-chloro-N-(2,5-difluorophenyl)-N-[(3-amino)-1(R)-methylpropyl]benzenesulfonamide]-3,4-dioxo-1-cyclobutenyl)amine-1(R)- [Example 1139]”, the IC50 is 100 to 500 nM.
On the same count and under the same terms, to “4-chloro-N-(5-chloro-2-fluorophenyl)-N-[3-[2-[4-chloro-N-(5-chloro-2-fluorophenyl)-N-[(3-amino)-1(R)-methylpropyl]benzenesulfonamide]-3,4-dioxo-1-cyclobutenyl)amine-1(R)- [Example 1130]” belongs 50 to 100 nM.

Staying with this test, now noted: transfected H4 cells stably expressing APP; approx. 16 h incubation; amyloid β in medium by ELISA; read-out: ACTIVITY (IC50, inhibition of amyloid β production).
As for “4-chloro-N-{3-[2-(1-{[(4-chlorophenyl)sulfonyl]-2,5-difluoroanilino}ethyl)phenoxy]propyl}-N-methyl-2-nitrobenzamide [Example 636]”, the IC50 is 100 to 500 nM.
As for “4-chloro-N-{3-[2-(1-{[(4-chlorophenyl)sulfonyl]-2,5-difluoroanilino}ethyl)phenoxy]propyl}-N-methylbenzamide [Example 722]”, the IC50 fell in the range of 100 to 500 nM.

Still in this test, the particulars now being: transfected H4 cells stably expressing APP; approximately 16 hours incubation; amyloid β in medium by ELISA; Table B; read-out: ACTIVITY (IC50, inhibition of amyloid β production).
As for “4-tert-butyl-N-{3-[2-(1-{[(4-chlorophenyl)sulfonyl]-2,5-difluoroanilino}ethyl)phenoxy]propyl}benzamide [Example 274]”, the IC50 fell in the range of 25 to 50 nM.

Still in this test, the particulars now being: transfected H4 cells stably expressing APP; approximately 16 hours incubation; amyloid β in medium by ELISA; read-out: ACTIVITY (IC50, inhibition of amyloid β production).
In the case of “4-chloro-N-(2,5-difluorophenyl)-N-[(1R)-1-(4-[(ethylsulfonyl)amino]butyl}-4-fluorophenyl)ethyl]benzenesulfonamide [Example 1075]”, the IC50 is greater than 500 nM.
On the same count and under the same terms, the value for “4-chloro-N-(2,5-difluorophenyl)-N-{2-[3-(1-piperidinyl)propyl]benzyl}-N-phenylbenzenesulfonamide [Example 1044]” was greater than 500 nM; that for “4-chloro-N-{3-[2-(1-{[(4-chlorophenyl)sulfonyl]-2,5-difluoroanilino}ethyl)phenoxy]propyl}-2-nitrobenzamide [Example 947]” was greater than 500 nM; that for “4-chloro-N-{3-[2-(1-{[(4-chlorophenyl)sulfonyl]-2,5-difluoroanilino}ethyl)phenoxy]propyl}-N-methyl-3-nitrobenzenesulfonamide [Example 807]” was 100 to 500 nM.
For “4-chloro-N-{3-[2-(1-{[(4-chlorophenyl)sulfonyl]-2,5-difluoroanilino}ethyl)phenoxy]propyl}benzamide [Example 811]”, the IC50 lay within 100 to 500 nM.
Same read-out and setting: the value for “4-chloro-N-{3-[2-({[(4-chlorophenyl)sulfonyl]-2,5-difluoroanilino}methyl)phenoxy]propyl}-N-methylbenzamide [Example 970]” was greater than 500 nM; that for “5-[2-((1R)-1-{[(4-chlorophenyl)sulfonyl]-2,5-difluoroanilino}ethyl)-5-fluorophenyl]butanoic acid [Example 1070]” was greater than 500 nM.
